From patent US20090005363A1, “Organic Compounds” (priority 2005, published 2009)
Structures can show the parent of a compound that is named as a salt.

These compounds were tested against mGluR5 (Homo sapiens, UniProt P41594) (assay: inhibition of the glutamate induced elevation of intracellular Ca2+ concentration). Details: read-out: mGluR5 Activity inh. at 10 μM [%].
Chain of mGluR5 (P41594 21-1180 isoform P41594-2 limits assumed): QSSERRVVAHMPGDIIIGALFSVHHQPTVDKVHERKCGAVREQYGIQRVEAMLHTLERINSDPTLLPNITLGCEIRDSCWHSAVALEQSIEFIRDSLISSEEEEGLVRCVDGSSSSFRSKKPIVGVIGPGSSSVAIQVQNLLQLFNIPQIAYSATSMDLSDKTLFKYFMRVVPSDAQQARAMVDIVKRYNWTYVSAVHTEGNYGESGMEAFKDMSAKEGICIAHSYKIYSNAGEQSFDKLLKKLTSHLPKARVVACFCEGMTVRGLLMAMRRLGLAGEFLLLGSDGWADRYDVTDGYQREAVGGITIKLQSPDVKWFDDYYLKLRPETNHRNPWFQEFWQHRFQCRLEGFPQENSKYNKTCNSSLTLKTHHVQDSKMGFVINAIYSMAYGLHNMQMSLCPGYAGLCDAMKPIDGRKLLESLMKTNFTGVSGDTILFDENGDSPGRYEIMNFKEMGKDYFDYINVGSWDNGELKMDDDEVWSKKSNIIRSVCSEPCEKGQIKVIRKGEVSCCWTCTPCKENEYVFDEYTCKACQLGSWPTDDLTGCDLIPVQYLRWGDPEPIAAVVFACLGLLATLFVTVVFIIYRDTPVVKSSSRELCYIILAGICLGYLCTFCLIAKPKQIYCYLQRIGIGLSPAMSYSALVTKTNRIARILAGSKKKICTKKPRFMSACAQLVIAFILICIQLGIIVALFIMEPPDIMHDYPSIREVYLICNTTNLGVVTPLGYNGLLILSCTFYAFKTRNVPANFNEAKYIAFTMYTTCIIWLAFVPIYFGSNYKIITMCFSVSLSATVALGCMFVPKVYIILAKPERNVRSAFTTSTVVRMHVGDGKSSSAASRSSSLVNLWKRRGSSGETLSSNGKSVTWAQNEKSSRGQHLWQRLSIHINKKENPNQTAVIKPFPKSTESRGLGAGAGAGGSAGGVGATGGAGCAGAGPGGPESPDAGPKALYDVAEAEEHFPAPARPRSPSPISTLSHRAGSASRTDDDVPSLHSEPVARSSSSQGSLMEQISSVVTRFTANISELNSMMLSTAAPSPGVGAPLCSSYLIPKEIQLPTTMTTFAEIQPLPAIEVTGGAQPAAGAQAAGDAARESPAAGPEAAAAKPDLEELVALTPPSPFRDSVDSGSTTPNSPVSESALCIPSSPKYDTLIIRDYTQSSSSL
Source text: This can be determined in vitro for example at recombinant human metabotropic glutamate receptors, especially PLC-coupled subtypes thereof such as mGluR5, using different procedures like, for example, measurement of the inhibition of the agonist induced elevation of intracellular Ca^2+ concentration in accordance with L. P. Daggett et al., Neuropharm.

SMILES	inhibition at 10 µM [%]
COc1ccc(Nc2ccc(C(=O)N3CCOCC3)cn2)cc1 [Compound 1.18, [6-(4-Methoxy-phenylamino)-pyridin-3-yl]-morpholin-4-yl-methanone hydrochloride]	32
Cc1ccc(Nc2ccc(C(=O)N3CCCCC3C)cn2)cc1 (stereo not shown) [Compound 1.10, (2-Methyl-piperidin-1-yl)-(6-p-tolylamino-pyridin-3-yl)-methanone]	94
CCC(CC)C1OCCCN1C(=O)c1cnc(Nc2ccc(C)nc2)c(Cl)c1 (stereo not shown) [Compound 4.69, [5-Chloro-6-(6-methyl-pyridin-3-ylamino)-pyridin-3-yl]-[2-(1-ethyl-propyl)-[1,3]oxazinan-3-yl]-methanone]	99
Cc1ccc(Nc2ccc(C(=O)N3CCC[C@@H](C)C3)cn2)cn1 [Compound 4.13b, (R-3-Methyl-piperidin-1-yl)-[6-(6-methyl-pyridin-3-ylamino)-pyridin-3-yl]-methanone]	96
Cc1ccc(Nc2ncc(C(=O)N3CCCCC3CCO)cc2Cl)cn1 (stereo not shown) [Compound 4.61, [5-Chloro-6(6-methyl-pyridin-3-ylamino)-pyridin-3-yl]-[2-(2-hydroxy-ethyl)-piperidin-1-yl]-methanone]	79
CCC(CC)C1CCCCN1C(=O)c1cnc(Nc2ccc(C)nc2)c(Cl)c1 (stereo not shown) [Compound 4.39, [5-Chloro-6-(6-methyl-pyridin-3-ylamino)-pyridin-3-yl]-[2-(1-ethyl-propyl)-piperidin-1-yl]-methanone]	96
CC1(C)CCCN(C(=O)c2ccc(Nc3ccc(Cl)cc3)nn2)C1 [Compound 8.3, [6-(4-Chloro-phenylamino)-pyridazin-3-yl]-(3,3-dimethyl-piperidin-1-yl)-methanone]	82
Cc1ccc(Nc2ncc(C(=O)N3C(C)(C)CCCC3(C)C)cc2Cl)cn1 [Compound 4.49, [5-Chloro-6-(6-methyl-pyridin-3-ylamino)-pyridin-3-yl]-(2,2,6,6-tetramethyl-piperidin-1-yl)-methanone]	66
Cc1ccc(Nc2ccc(C(=O)N3C[C@@H](C)O[C@@H](C)C3)cn2)cc1 [Compound 1.20, (cis-2,6-Dimethyl-morpholin-4-yl)-(6-p-tolylamino-pyridin-3-yl)-methanone hydrochloride]	95
Cc1cccc(C#C[C@]2(O)CCC[C@@H]3[C@H]2CCN3C(=O)c2ccc(Nc3ccc(Cl)cc3)nc2)c1 (relative stereo) [Compound 4.14, [6-(4-Chloro-phenylamino)-pyridin-3-yl]-(rel-(3aR,4S,7aR)-4-hydroxy-4-m-tolylethynyl-octahydro-indol-1-yl)-methanone]	86
